Measurements taken from US8367658B2, “Pyrazin-2-yl-pyridin-2-yl-amine and pyrazin-2-yl-pyrimidin-4-yl-amine compounds and their use” (Cancer Research Technology Limited, priority 2007, dated 2013).
Several values for one entry are separate records, joined by “and”; a condition that tells them apart may be missing. Equal entries are not always repeated.

target: T1, CHK1 (Homo sapiens, UniProt O14757); test: CHK1 kinase function inhibition assay (DELFIA, phosphorylation of a CDC25C peptide); assay type: biochemical; details: CHK1 1 nM, ATP 30 μM, 30 minutes at room temperature
T1 sequence (O14757 1-476): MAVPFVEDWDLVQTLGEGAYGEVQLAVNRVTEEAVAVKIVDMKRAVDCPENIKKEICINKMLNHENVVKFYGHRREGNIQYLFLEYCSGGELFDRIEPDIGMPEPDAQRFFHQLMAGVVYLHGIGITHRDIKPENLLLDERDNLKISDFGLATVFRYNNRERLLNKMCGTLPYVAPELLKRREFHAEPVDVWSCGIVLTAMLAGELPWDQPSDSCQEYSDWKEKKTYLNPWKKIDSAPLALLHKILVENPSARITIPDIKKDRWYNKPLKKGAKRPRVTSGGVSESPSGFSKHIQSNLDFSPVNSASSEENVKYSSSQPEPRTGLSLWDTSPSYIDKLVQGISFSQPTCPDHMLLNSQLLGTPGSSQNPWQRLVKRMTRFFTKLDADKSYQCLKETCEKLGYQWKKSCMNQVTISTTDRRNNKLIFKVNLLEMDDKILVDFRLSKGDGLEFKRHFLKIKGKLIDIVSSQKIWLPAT
In short: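 Phosphorylation of a CDC25C peptide detected by DELFIA with a phospho-specific antibody. Kinase reaction ran 30 min at room temperature, was stopped with EDTA buffer, then captured on neutravidin-coated plates for 1 h before time-resolved fluorescence read-out with enhancement solution.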

IC50	SMILES
≤ 100 nM	N#Cc1cnc(Nc2cc(NCC3CCCNC3)c(-n3ccc(CO)c3)cn2)cn1 (stereo not drawn) [Compound Y-063, 5-(5-(3-(Hydroxymethyl)-1H-pyrrol-1-yl)-4-(piperidin-3-ylmethylamino)pyridin-2-ylamino)pyrazine-2-carbonitrile]
≤ 100 nM	COc1ccc(-c2cnc(Nc3cnc(C#N)cn3)cc2NCC2CCNCC2)cc1 [Compound Y-126, 5-(5-(4-Methoxyphenyl)-4-(piperidin-4-ylmethylamino)pyridin-2-ylamino)pyrazine-2-carbonitrile]
≤ 100 nM	CCOC(=O)c1cc(-c2cnc(Nc3cnc(C#N)cn3)cc2NCC2CCNCC2)cs1 [Compound Y-128, Ethyl 4-(6-(5-cyanopyrazin-2-ylamino)-4-(piperidin-4-ylmethylamino)pyridin-3-yl)thiophene-2-carboxylate]
≤ 100 nM	COCCOc1ccc(-c2cnc(Nc3cnc(C#N)cn3)cc2NC2CCN(C)CC2)cc1 [Compound Y-117, 5-(5-(4-(2-Methoxyethoxy)phenyl)-4-(1-methylpiperidin-4-ylamino)pyridin-2-ylamino)pyrazine-2-carbonitrile]
≤ 100 nM	N#Cc1cnc(Nc2cc(NCC3CCNCC3)c(C(=O)Nc3ccc(N4CCOCC4)cc3)cn2)cn1 [Compound Y-100, 6-(5-Cyanopyrazin-2-ylamino)-N-(4-morpholinophenyl)-4-(piperidin-4-ylmethylamino)nicotinamide]
≤ 100 nM	COCCOc1cccc(-c2cnc(Nc3cnc(C#N)cn3)cc2NC2CCN(C)CC2)c1 [Compound Y-118, 5-(5-(3-(2-methoxyethoxy)phenyl)-4-(1-methylpiperidin-4-ylamino)pyridin-2-ylamino)pyrazine-2-carbonitrile]
1000 to 10000 nM	N#Cc1cnc(Nc2cc(N(CCN)CC(N)=O)ncn2)cn1 [Compound Z-009, 2-((2-Aminoethyl)(6-(5-cyanopyrazin-2-ylamino)pyrimidin-4-yl)amino)acetamide]
≤ 1000 nM and 100 to 1000 nM	N#Cc1cnc(Nc2cc(NCCC[C@H](N)C(=O)NCc3ccccc3)ncn2)cn1 [Compound Z-011, (S)-2-Amino-N-benzyl-5-(6-(5-cyanopyrazin-2-ylamino)pyrimidin-4-ylamino)pentanamide]
1000 to 10000 nM	N#Cc1cnc(Nc2cc(NCC3CCNCC3)c(C(=O)N3CCOCC3)cn2)cn1 [Compound Y-089, 5-(5-(Morpholine-4-carbonyl)-4-(piperidin-4-ylmethylamino)pyridin-2-ylamino)pyrazine-2-carbonitrile]
≤ 100 nM	CCNC(=O)c1cnc(Nc2cnc(C#N)cn2)cc1NC1CCN(C)CC1 [Compound Y-085, 6-(5-Cyanopyrazin-2-ylamino)-N-ethyl-4-(1-methylpiperidin-4-ylamino)nicotinamide]
≤ 1000 nM and 100 to 1000 nM	N#Cc1cnc(Nc2cc(NCCC[C@H](N)C(=O)Nc3ccccc3)ncn2)cn1 [Compound Z-010, (S)-2-Amino-5-(6-(5-cyanopyrazin-2-ylamino)pyrimidin-4-ylamino)-N-phenylpentanamide]
≤ 1000 nM and 100 to 1000 nM	COC(=O)c1cnc(Nc2cnc(C#N)cn2)cc1NCC1(C)COC1 [Compound Y-031, Methyl 6-(5-cyanopyrazin-2-ylamino)-4-((3-methyloxetan-3-yl)methylamino)nicotinate]
100 to 1000 nM	N#Cc1cnc(Nc2cc(NCC3CCNCC3)c(-c3ccc4c(c3)OCCO4)cn2)cn1 [Compound Y-134, 5-(5-(2,3-Dihydrobenzo[b][1,4]dioxin-6-yl)-4-(piperidin-4-ylmethylamino)pyridin-2-ylamino)pyrazine-2-carbonitrile]
≤ 1000 nM and 100 to 1000 nM	COC(=O)c1cnc(Nc2cnc(C#N)cn2)cc1NC1CC(C)(C)N(C)C(C)(C)C1 [Compound Y-024, Methyl 6-(5-cyanopyrazin-2-ylamino)-4-(1,2,2,6,6-pentamethylpiperidin-4-ylamino)nicotinate]

SMILES	IC50
COC(=O)c1cnc(Nc2cnc(C#N)cn2)cc1NC1CC2CCCC(C1)N2C (stereo not drawn) [Compound Y-071, Methyl 6-(5-cyanopyrazin-2-ylamino)-4-(9-methyl-9-azabicyclo[3.3.1]-nonan-3-ylamino)nicotinate]	100 to 1000 nM
COC(=O)c1cnc(Nc2cnc(C#N)cn2)cc1N(C)C1CCN(C)CC1 [Compound Y-070, Methyl 6-(5-cyanopyrazin-2-ylamino)-4-(methyl(1-methylpiperidin-4-yl)amino)nicotinate]	≤ 100 nM
COC(=O)c1cnc(Nc2cnc(C#N)cn2)cc1NC1CC2CCC(C1)N2Cc1ccccn1 (stereo not drawn) [Compound Y-080, Methyl 6-(5-cyanopyrazin-2-ylamino)-4-(8-(pyridin-2-ylmethyl)-8-azabicyclo[3.2.1]octan-3-ylamino)nicotinate]	≤ 100 nM
COC(=O)c1cnc(Nc2cnc(C#N)cn2)cc1N[C@H]1C[C@H]2CC[C@@H](C1)N2Cc1ccccc1 [Compound Y-030, Methyl 4-((1R,3r,5S)-8-benzyl-8-azabicyclo[3.2.1]octan-3-ylamino)-6-(5-cyanopyrazin-2-ylamino)nicotinate]	1000 to 10000 nM
